Test results from patent US10434199B2, “Picolinate cross-bridged cyclams, chelates with metallic cations and use thereof” (UNIVERSITÉ DE BRETAGNE OCCIDENTALE, priority 2013, dated 2019).
Where two headings read alike, the source gives them in different places.

How the values were obtained:
[1] = cited from earlier work; for c) inertness vs Zn: log K[ZnL]: overview table, ligands of the prior art (** Delgado 1982, *** Chaves 1992)
[2] = Potentiometric titrations: stability constants and pM of Zn^2+ complexes; assay type: physicochemical; conditions: for c) inertness vs Zn: pZn: overview table, calculated pM
Experimental: Equipment and work conditions. The potentiometric setup has been described in Roger, M. et al. Inorg. Chem. 2013, 52, 5246-5259. The titrant was a KOH solution prepared at ca. 0.1 M from a commercial ampoule of analytical grade, and its accurate concentration was obtained by application of the Gran's method upon titration of a standard HNO3 solution (Rossotti, F. J. and Rossotti, H. J. J. Chem. Educ. 1965, 42, 375-378). Ligand solutions were prepared at about 2.0×10^−3 M, and the Cu^2+ and Zn^2+ solutions at ca. 0.05 M from analytical grade nitrate salts and standardized by complexometric titrations with H4edta (ethylenediaminetetraacetic acid). Sample solutions for titration contained approximately 0.04 mmol of ligand in a volume of 30 mL where the ionic strength was kept at 0.10 M using KNO3 as background electrolyte. Metal cations were added at 0.9 equiv. of the ligand amount in complexation titrations. Batch titrations were prepared in a similar way but with each titration point corresponding to 1/10 of the amount of a conventional titration sample. Batch titration points were incubated in tightly closed vials at 25° C. until potential measurements attained complete stability, which happened within a week.
Measurements. All measurements were carried out at 25.0±0.1° C. under inert atmosphere. The electromotive force of the sample solutions was measured after calibration of the electrodes by titration of a standard HNO3 solution at 2.0×10^−3 M in the work conditions. The [H^+] of the solutions was determined by measurement of the electromotive force of the cell, E=E^o′+Q log [H^+]+Ej. The term pH is defined as −log [H^+]. E^o′ and Q were determined from the acid region of the calibration curves. Deviations from the Nernst law at very low pH (pH<2.5) were corrected with the VLpH software (Calibration software from the maker of Hyperquad available for free at http://www.hyperquad.co.uk/), which performs a [H^+] correction based on a very low pH calibration procedure. The liquid-junction potential, Ej, was otherwise found to be negligible for pH >2.5 under the experimental conditions used. […] Each titration consisted of 80-100 equilibrium points in the range of pH 2.5-11.5 (or 1.5-11.5 for Cu^2+ complexations), and at least two replicate titrations were performed for each particular system.
(§1) Calculations. The potentiometric data were refined with the Hyperquad software, and speciation diagrams were plotted using the HySS software. The overall equilibrium constants βi^H and βMmHhL1 are defined by βMmHhL1=[MmHhLl]/[M]^m[H]^h[L]^l (βi^H=[HhLl]/[H]^h[L]^l and βML-1L=βML(OH)×Kw). Differences in log units between the values of protonated (or hydrolysed) and non-protonated constants provide the stepwise (log K) reaction constants (being KMmHhL1=[MmHhLl]/[MmHh-1Ll][H]). The errors quoted are the standard deviations calculated by the fitting program from all the experimental data for each system.
(§2) The stability constants of the complexes formed by Hcb-te1pa with Cu^2+ and Zn^2+ were determined by potentiometric titrations in aqueous solution at 25.0° C. in 0.10 M KNO3 ionic strength (Table 2).
The equilibrium of formation of the copper(II) and especially the zinc(II) complexes is slow in the acidic pH range. In the case of Cu^2+, the complexation is almost complete from low pH but relatively slow up to pH=4. To overcome this double problem, conventional titrations were performed at pH values below 2 in order to observe a significant percentage of free metal ion (at least 18%) and thus allow for determination of the corresponding stability constant, while giving the solution enough time to reach equilibrium prior to the start of the titration. During titrations, each experimental point included a supplementary equilibration time in order to yield fully stabilized measurements. […]

[3] = 25.0° C., 0.10M KNO3; from Lima et al. 2012; cited from earlier work
[4] = Potentiometric titrations: stability constants and pM of Cu^2+ complexes; assay type: physicochemical; conditions: for b) thermodynamic stability: pCu: overview table, calculated pM
Experimental: Equipment and work conditions. The potentiometric setup has been described in Roger, M. et al. Inorg. […] Ligand solutions were prepared at about 2.0×10^−3 M, and the Cu^2+ and Zn^2+ solutions at ca. 0.05 M from analytical grade nitrate salts and standardized by complexometric titrations with H4edta (ethylenediaminetetraacetic acid). Sample solutions for titration contained approximately 0.04 mmol of ligand in a volume of 30 mL where the ionic strength was kept at 0.10 M using KNO3 as background electrolyte. Metal cations were added at 0.9 equiv. of the ligand amount in complexation titrations. Batch titrations were prepared in a similar way but with each titration point corresponding to 1/10 of the amount of a conventional titration sample.
Measurements. All measurements were carried out at 25.0±0.1° C. under inert atmosphere. The electromotive force of the sample solutions was measured after calibration of the electrodes by titration of a standard HNO3 solution at 2.0×10^−3 M in the work conditions. The [H^+] of the solutions was determined by measurement of the electromotive force of the cell, E=E^o′+Q log [H^+]+Ej. The term pH is defined as −log [H^+]. E^o′ and Q were determined from the acid region of the calibration curves. Deviations from the Nernst law at very low pH (pH<2.5) were corrected with the VLpH software (Calibration software from the maker of Hyperquad available for free at http://www.hyperquad.co.uk/), which performs a [H^+] correction based on a very low pH calibration procedure.
as §1, §2
During titrations, each experimental point included a supplementary equilibration time in order to yield fully stabilized measurements. […] For this reason, batch titrations were prepared in the range of pH=4-6 and were left to equilibrate until full stabilization, while conventional titrations were used for the remaining pH regions.
For a correct comparison of the thermodynamic stability of the complexes of Hcb-te1pa with the corresponding values of other ligands from the literature, the pM values that take into account the variable basicity properties of different ligands were also calculated (Table 3). […] The thermodynamic stability is not the only important criterion to determine the efficiency of metal complexation because, depending on the application, other factors such as kinetic inertness or in vivo stability can be more important.

[5] = overview table; copper chelates of prior-art ligands; cited from earlier work
[6] = overview table, cited from earlier work; for a) metallation kinetics: time required for complete (>99%) Cu complexation (in words): ligands of the prior art
[7] = cited from earlier work; for half-life (t1/2), acid-assisted dissociation of copper(II) complex: literature value; for d) kinetic inertness: half-life (t1/2): copper chelates of prior-art ligands
[8] = cited from earlier work; for b) thermodynamic stability: log K[CuL]: overview table, ligands of the prior art (* estimation by Anderson and Ferdani 2009)
[9] = 25.0° C., I = 0.10M KNO3, from Lima et al. 2012
[10] = pH = 7.4, 100% excess of ligand, [M^2+]tot = 1 × 10^−5 M

O=C(O)c1cccc(CN2CCCNCCNCCCNCC2)n1 [Hte1pa]
log KMLHh, ZnL + H^+ ⇌ ZnHL [1, 9]: 2.52 log units
log KMLHh, ZnLOH + H^+ ⇌ ZnL [1, 9]: 11.02 log units
log KMLHh, Zn^2+ + L ⇌ ZnL [1, 9]: 18.86 log units
log βMLHh, Zn^2+ + H^+ + L ⇌ ZnHL [1, 9]: 21.38 log units
log βMLHh, Zn^2+ + L ⇌ ZnL [1, 9]: 18.86 log units
log βMLHh, Zn^2+ + L ⇌ ZnLOH + H^+ [1, 9]: 7.84 log units
c) inertness vs Zn: log K[ZnL] [1]: 18.86
c) inertness vs Zn: pZn [2]: 12.00
Calculated pM, Zn^2+ [2, 10]: 12.00
log βi^H, L + 2 H^+ ⇌ H2L [3]: 21.66 log units
log βi^H, L + 3 H^+ ⇌ H3L [3]: 24.37 log units
log βi^H, L + 4 H^+ ⇌ H4L [3]: 26.07 log units
log βi^H, L + H^+ ⇌ HL [3]: 11.55 log units
b) thermodynamic stability: pCu [4]: 18.64
Calculated pM, Cu^2+ [4, 10]: 18.64
e) stability upon reduction, Cu(II) -> Cu (I): reduction potential [5]: −1.05 V
e) stability upon reduction, Cu(II) -> Cu (I): reversibility [5]: quasi-reversible
a) metallation kinetics: time required for complete (>99%) Cu complexation ([6]; ligand of the prior art): 3 min
half-life (t1/2), acid-assisted dissociation of copper(II) complex ([7]; 1M HCl, 25° C.): 0.533 h
half-life (t1/2), acid-assisted dissociation of copper(II) complex ([7]; 5M HClO4, 25° C.): 2.4 h
d) kinetic inertness: half-life (t1/2) ([7]; HClO4, 5M, 25° C.): 144 min
log KMLHh, CuL + H^+ ⇌ CuHL [8, 9]: 2.17 log units
log KMLHh, CuLOH + H^+ ⇌ CuL [8, 9]: 11.15 log units
log KMLHh, Cu^2+ + L ⇌ CuL [8, 9]: 25.5 log units
log βMLHh, Cu^2+ + H^+ + L ⇌ CuHL [8, 9]: 27.67 log units
log βMLHh, Cu^2+ + L ⇌ CuL [8, 9]: 25.5 log units
log βMLHh, Cu^2+ + L ⇌ CuLOH + H^+ [8, 9]: 14.35 log units
b) thermodynamic stability: log K[CuL] [8]: 25.50

O=C(O)CN1CCN2CCN(CC1)CCN(CC(=O)O)CC2 [cb-do2a]
e) stability upon reduction, Cu(II) -> Cu (I): reduction potential [5]: −0.72 V
e) stability upon reduction, Cu(II) -> Cu (I): reversibility [5]: irreversible
a) metallation kinetics: time required for complete (>99%) Cu complexation (in words) [6]: too slow
half-life (t1/2), acid-assisted dissociation of copper(II) complex ([7]; 5M HCl, 30° C.): <0.033 h
d) kinetic inertness: half-life (t1/2) ([7]; HCl, 5M, 30° C.): <2 min
d) kinetic inertness: half-life (t1/2) ([7]; HCl, 5M, 90° C.): <3 min

O=C(O)CN1CCCN2CCN(CCCN(CC(=O)O)CC2)CC1 [cb-te2a]
e) stability upon reduction, Cu(II) -> Cu (I): reduction potential [5]: −0.88 V
e) stability upon reduction, Cu(II) -> Cu (I): reversibility [5]: quasi-reversible
a) metallation kinetics: time required for complete (>99%) Cu complexation (in words) [6]: too slow
half-life (t1/2), acid-assisted dissociation of copper(II) complex ([7]; 5M HCl, 90° C.): 154 h
d) kinetic inertness: half-life (t1/2) ([7]; HCl, 5M, 90° C.): 9240 min
b) thermodynamic stability: log K[CuL] [8]: 27.10*

O=C(O)CN1CCN(CC(=O)O)CCN(CC(=O)O)CCN(CC(=O)O)CC1 [dota, 1,4,7,10-tetraazacyclododecane-1,4,7,10-tetraacetic acid]
c) inertness vs Zn: log K[ZnL] [1]: 21.01***
c) inertness vs Zn: pZn [2]: 15.01
b) thermodynamic stability: pCu [4]: 15.19
e) stability upon reduction, Cu(II) -> Cu (I): reduction potential [5]: −0.74 V
e) stability upon reduction, Cu(II) -> Cu (I): reversibility [5]: irreversible
a) metallation kinetics: time required for complete (>99%) Cu complexation (in words) [6]: fast
d) kinetic inertness: half-life (t1/2) ([7]; HCl, 5M, 90° C.): <1 min
d) kinetic inertness: half-life (t1/2) ([7]; HClO4, 5M, 25° C.): about 5 min
b) thermodynamic stability: log K[CuL] [8]: 22.21

O=C(O)CN1CCCN(CC(=O)O)CCN(CC(=O)O)CCCN(CC(=O)O)CC1 [teta]
c) inertness vs Zn: log K[ZnL] [1]: 15.81**
c) inertness vs Zn: pZn [2]: 10.08
b) thermodynamic stability: pCu [4]: 15.19
e) stability upon reduction, Cu(II) -> Cu (I): reduction potential [5]: −0.98 V
e) stability upon reduction, Cu(II) -> Cu (I): reversibility [5]: irreversible
a) metallation kinetics: time required for complete (>99%) Cu complexation (in words) [6]: fast
d) kinetic inertness: half-life (t1/2) ([7]; HCl, 5M, 30° C.): 5040 min
d) kinetic inertness: half-life (t1/2) ([7]; HCl, 5M, 90° C.): 4.5 min
d) kinetic inertness: half-life (t1/2) ([7]; HClO4, 5M, 25° C.): about 8 min
b) thermodynamic stability: log K[CuL] [8]: 21.60
